Results as given in PMC7395068, “The evolution of strategies to minimise the risk of human drug-induced liver injury (DILI) in drug discovery and development” (Archives of Toxicology, 2020).
Like-named read-outs stand apart in the source and are kept apart here. One block for each molecule: values may come before it.

Columns and labels:
[1] = Plasma free fraction (fu) and unbound Cmax (Cmax,u); format: in vitro ADME, human; conditions: unbound plasma Cmax
[2] = cited from earlier work
human hepatocytes = conditions: cited from earlier work
[3] = test system: THLE or HepG2 cells, isolated mitochondria, BSEP; conditions: cited from earlier work
PHH = conditions: cited from earlier work
hLiMTs [4] = conditions: cited from earlier work
PHH spheroids = conditions: cited from earlier work
[5] = test system: HepG2 C3A spheroid, BSEP, Glu/Gal in HepG2 cells, bioactivation; conditions: cited from earlier work
[6] = plasma free fraction; cited from earlier work
[7] = cited from earlier work; remark: listed apart in the source
[8] = test system: isolated mouse liver mitochondria; conditions: In vitro Assay; ref Porceddu 2012; cited from earlier work
hLiMTs [9] = assay: Combined HCI (HCS) and cellular ATP 3D assay in hLiMTs; conditions: for AC50 / minimal effective concentration: Homo sapiens; for DILI prediction hLiMTs (HCS-MEC): Microtissue model structural based (HCI), combined HCS and ATP, MEC < 25 × Cmax.tot cut-off; for hLiMTs <25x Avg Cmax ATP / hLiMTs <100x Avg Cmaxu ATP: ATP endpoint; for hLiMTs <25x Avg Cmax ATP / hLiMTs <25x Avg Cmax HCS / hLiMTs <25x Avg Cmax All: cut-off <25x Avg Cmax; for hLiMTs <100x Avg Cmaxu ATP / hLiMTs <100x Avg Cmaxu HCS / hLiMTs <100x Avg Cmaxu All: cut-off <100x Avg Cmaxu; for hLiMTs <25x Avg Cmax HCS / hLiMTs <100x Avg Cmaxu HCS: HCS endpoints; for hLiMTs <25x Avg Cmax All: all endpoints (ATP and HCS); for hLiMTs Cmax max All / hLiMTs Cmax min All / hLiMTs <10 uM All / hLiMTs <100x Avg Cmaxu All: all endpoints; for hLiMTs Cmax max All: Cmax max used; for hLiMTs Cmax min All: Cmax min used; for hLiMTs <10 uM All: cut-off <10 uM
HepaRG spheroids = assay: Combined HCI (HCS) and cellular ATP 3D assay in HepaRG spheroids; conditions: for HepaRG <25x Avg Cmax ATP / HepaRG <100x Avg Cmaxu ATP: ATP endpoint; for HepaRG <25x Avg Cmax ATP / HepaRG <25x Avg Cmax HCS / HepaRG <25x Avg Cmax All: cut-off <25x Avg Cmax; for HepaRG <100x Avg Cmaxu ATP / HepaRG <100x Avg Cmaxu HCS / HepaRG <100x Avg Cmaxu All: cut-off <100x Avg Cmaxu; for HepaRG <25x Avg Cmax HCS / HepaRG <100x Avg Cmaxu HCS: HCS endpoints; for HepaRG <25x Avg Cmax All: all endpoints (ATP and HCS); for HepaRG Cmax max All / HepaRG Cmax min All / HepaRG <10 uM All / HepaRG <100x Avg Cmaxu All: all endpoints; for HepaRG Cmax max All: Cmax max used; for HepaRG Cmax min All: Cmax min used; for HepaRG <10 uM All: cut-off <10 uM; for AC50 / minimal effective concentration: Homo sapiens; for HepaRG <25x Avg Cmax ATP / HepaRG <100x Avg Cmaxu ATP / HepaRG <25x Avg Cmax HCS / HepaRG <100x Avg Cmaxu HCS / HepaRG <25x Avg Cmax All / HepaRG Cmax max All / HepaRG Cmax min All / HepaRG <10 uM All / HepaRG <100x Avg Cmaxu All / AC50 / minimal effective concentration: HepaRG; for DILI prediction HepaRG spheroids (HCS-MEC): Microtissue model structural based (HCI), combined HCS and ATP, MEC < 25 × Cmax.tot cut-off
[10] = test system: HepG2 cells, primary human hepatocytes; conditions: In vitro Assay; ref Garside 2014; cited from earlier work
[11] = ref Chen 2011; cited from earlier work
[12] = Modeled in vitro assays (cytotoxicity, mitochondrial dysfunction, BSEP), ref Aleo et al. 2019
[13] = In vitro Assay, ref Proctor 2017

- Human plasma Cmax,u [1]: 1 nM
- hLiMTs <25x Avg Cmax ATP (hLiMTs [9]): -ve
- hLiMTs <100x Avg Cmaxu ATP (hLiMTs [9]): -ve
- hLiMTs <25x Avg Cmax HCS (hLiMTs [9]): -ve
- hLiMTs <100x Avg Cmaxu HCS (hLiMTs [9]): -ve
- hLiMTs <25x Avg Cmax All (hLiMTs [9]): -ve
- hLiMTs Cmax max All (hLiMTs [9]): -ve
- hLiMTs Cmax min All (hLiMTs [9]): -ve
- hLiMTs <10 uM All (hLiMTs [9]): +ve (<10 uM)
- hLiMTs <100x Avg Cmaxu All (hLiMTs [9]): -ve
- HepaRG <25x Avg Cmax ATP (HepaRG spheroids): -ve
- HepaRG <100x Avg Cmaxu ATP (HepaRG spheroids): -ve
- HepaRG <25x Avg Cmax HCS (HepaRG spheroids): -ve
- HepaRG <100x Avg Cmaxu HCS (HepaRG spheroids): -ve
- HepaRG <25x Avg Cmax All (HepaRG spheroids): -ve
- HepaRG Cmax max All (HepaRG spheroids): -ve
- HepaRG Cmax min All (HepaRG spheroids): -ve
- HepaRG <10 uM All (HepaRG spheroids): -ve
- HepaRG <100x Avg Cmaxu All (HepaRG spheroids): -ve
SMILES: CCN(CC)CC#CCOC(=O)C(O)(c1ccccc1)C1CCCCC1 (stereo not drawn) [oxybutynin]
- DILI +VE (5-8), DILI -VE (-4) ([2]; in vivo): -VE
- DILI severity category (Chen et al. [2016]) ([2]; in vivo): No
- DILI in vitro assay prediction, Xu (2008) (human hepatocytes): -VE
- Structural based (HCI) (human hepatocytes): -VE
- Rule of Two hybrid HRM Score ≥8, Aleo (2019) [3]: -VE
- PHH ATP <100uM (PHH): -VE
- PHH/100uM, Proctor (2017) (PHH): -VE
- hLiMTs ATP <100uM (hLiMTs [4]): -VE
- hLiMTs/100uM, Proctor (2017) (hLiMTs [4]): -VE
- hLiMTs ATP <20 x Cmax (PHH spheroids; In vitro Assay, ref Vorrink 2018): -VE
- DILI in vitro assay prediction, Vorrink (2018) (PHH spheroids): -VE
- Bayesian Machine Learning DILI prediction, Williams (2019) [5]: -VE
- fu [6]: 0.030
- Assigned DILI category ([7]; in vivo): 1
- In vivo DILI ([7]; in vivo): -VE
- in vitro data EC2<=1x Cmax [8]: -VE
- AC50 (hLiMTs [9]; read-out: HCS endpoint AC50): 6.06 µM
- minimal effective concentration (hLiMTs [9]; read-out: HCS endpoint MEC): 2.11 µM
- DILI prediction hLiMTs (HCS-MEC) (hLiMTs [9]): -VE
- AC50 (HepaRG spheroids; read-out: ATP endpoint AC50): 28.5 µM
- minimal effective concentration (HepaRG spheroids; read-out: ATP endpoint MEC): 16.1 µM
- AC50 (HepaRG spheroids; read-out: HCS endpoint AC50): 64.5 µM
- minimal effective concentration (HepaRG spheroids; read-out: HCS endpoint MEC): 10.3 µM
- DILI prediction HepaRG spheroids (HCS-MEC) (HepaRG spheroids): -VE

- Human plasma Cmax,u [1]: 3 nM
- hLiMTs <25x Avg Cmax ATP (hLiMTs [9]): +ve
- hLiMTs <100x Avg Cmaxu ATP (hLiMTs [9]): -ve
- hLiMTs <25x Avg Cmax HCS (hLiMTs [9]): +ve
- hLiMTs <100x Avg Cmaxu HCS (hLiMTs [9]): +ve (<100x Avg Cmaxu)
- hLiMTs <25x Avg Cmax All (hLiMTs [9]): +ve
- hLiMTs Cmax max All (hLiMTs [9]): +ve
- hLiMTs Cmax min All (hLiMTs [9]): +ve
- hLiMTs <10 uM All (hLiMTs [9]): +ve (<10 uM)
- hLiMTs <100x Avg Cmaxu All (hLiMTs [9]): +ve (<100x Avg Cmaxu)
- HepaRG <25x Avg Cmax ATP (HepaRG spheroids): +ve
- HepaRG <100x Avg Cmaxu ATP (HepaRG spheroids): -ve
- HepaRG <25x Avg Cmax HCS (HepaRG spheroids): +ve
- HepaRG <100x Avg Cmaxu HCS (HepaRG spheroids): +ve (<100x Avg Cmaxu)
- HepaRG <25x Avg Cmax All (HepaRG spheroids): +ve
- HepaRG Cmax max All (HepaRG spheroids): +ve
- HepaRG Cmax min All (HepaRG spheroids): +ve
- HepaRG <10 uM All (HepaRG spheroids): +ve (<10 uM)
- HepaRG <100x Avg Cmaxu All (HepaRG spheroids): +ve (<100x Avg Cmaxu)
SMILES: CCN(CC)CCNC(=O)c1c(C)[nH]c(/C=C2\C(=O)Nc3ccc(F)cc32)c1C [sunitinib]
- DILI severity category (Chen et al. [2016]) ([2]; LTKB DILIrank category, ref Chen et al. 2016): Most
- DILI severity category (Chen 2016) ([2]; human DILI classification, LTKB DILIrank, ref Chen et al. 2016): Most
- DILI severity category ([2]; human DILI severity, ref Chen et al.): Most
- DILI +VE (5-8), DILI -VE (-4) ([2]; ref Chen 2016): +VE
- DILI severity category ([2]; ref Chen 2016): vMost-DILI-Concern
- Partition Hybrid HRM Score ([3]; In vitro Assay, ref Aleo 2019): -VE
- Ro2 Hybrid HRM Score ([3]; In vitro Assay, ref Aleo 2019): -VE
- Partition Hybrid HRM Score ≥4, Aleo (2019) [3, 12]: +VE (Partition Hybrid HRM Score ≥4)
- Partition Hybrid HRM Score ≥8, Aleo (2019) [3, 12]: -VE
- Rule of Two hybrid HRM Score ≥3, Aleo (2019) [3, 12]: -VE
- Rule of Two hybrid HRM Score ≥8, Aleo (2019) [3, 12]: -VE
- PHH/100xCmax, Proctor (2017) (PHH; 2D PHH, ATP, IC50 < 100 × Cmax.tot, ref Proctor et al. 2017): +VE (IC50 < 100 × Cmax.tot)
- PHH/100uM, Proctor (2017) (PHH; 2D PHH, ATP, IC50 threshold 100 µM, ref Proctor et al. 2017): +VE (IC50 threshold of 100 µM)
- PHH ATP <100uM (PHH; [13]): +VE (IC50 threshold of 100 µM)
- hLiMTs ATP <100uM (hLiMTs [4]; [13]): +VE (IC50 threshold of 100 µM)
- hLiMTs/100xCmax, Proctor (2017) (hLiMTs [4]; hLiMTs, ATP, IC50 < 100 × Cmax.tot, ref Proctor et al. 2017): +VE (IC50 < 100 × Cmax.tot)
- hLiMTs/100uM, Proctor (2017) (hLiMTs [4]; hLiMTs, ATP, IC50 threshold 100 µM, ref Proctor et al. 2017): +VE (IC50 threshold of 100 µM)
- Bayesian Machine Learning DILI prediction, Williams (2019) ([5]; Bayesian modeling, ref Williams et al. 2019): +VE
- Bayesian Machine Learning ([5]; In vitro Assay, ref Williams 2019): +VE
- fu [6]: 0.050
- Assigned DILI category ([7]; Chen et al. 2016 or literature alignment, ref Chen et al. 2016): 3
- In vivo DILI ([7]; ref Aleo 2019): +VE
- In vivo DILI ([7]; ref Garside 2014): +VE
- In vivo DILI ([7]; ref Porceddu 2012): +VE
- In vivo DILI ([7]; ref Proctor 2017): +VE
- In vivo DILI ([7]; ref Williams 2019): +VE
- Cluster 1-6 +VE Assay [10]: +VE
- in vitro data EC2<=1x Cmax [8]: +VE
- in vitro data EC20<=2uM [8]: -VE
- DILI Score (FDA) (1-8) [11]: 8
- AC50 (hLiMTs [9]; read-out: ATP endpoint AC50): 0.4 µM
- minimal effective concentration (hLiMTs [9]; read-out: ATP endpoint MEC): 0.347 µM
- AC50 (hLiMTs [9]; read-out: HCS endpoint AC50): 0.421 µM
- minimal effective concentration (hLiMTs [9]; read-out: HCS endpoint MEC): 0.157 µM
- DILI prediction hLiMTs (HCS-MEC) (hLiMTs [9]): +VE (MEC < 25 × Cmax.tot cut-off)
- AC50 (HepaRG spheroids; read-out: ATP endpoint AC50): 3.11 µM
- minimal effective concentration (HepaRG spheroids; read-out: ATP endpoint MEC): 1.1 µM
- AC50 (HepaRG spheroids; read-out: HCS endpoint AC50): 1.71 µM
- minimal effective concentration (HepaRG spheroids; read-out: HCS endpoint MEC): 0.281 µM
- DILI prediction HepaRG spheroids (HCS-MEC) (HepaRG spheroids): +VE (MEC < 25 × Cmax.tot cut-off)
